The text below walks through data of US20240025918A1, “KRAS G12D Inhibitors” (Jacobio Pharmaceuticals Co., Ltd, priority 2020, published 2024).

The subject of one assay is AsPC-1. In words: Cell growth inhibition assay, AsPC-1 (CellTiter-Glo). It counts as cell-based. The following applies: Homo sapiens, ASPC1, 144 h; AsPC-1 cell viability, 6 days incubation. Here is the method: AsPC-1 cultured in RPMI-1640 medium (Gibco) containing 10% fetal bovine serum (Gibco). Cells in culture medium were plated in 96-well plates at a concentration of 1000 cells/well (100 μL/well) and allowed to attach overnight.
(§1) The next day, compounds were diluted in culture medium and added to the plates. After 6 days incubation in a 37° C./5% CO2 cell incubator, the cell viability was detected by CellTiter-Glo® Luminescent Cell Viability Assay kit (Promega). Luminescent signals were read on Tecan Spark multimode microplate reader and analyzed using a 4-parameter logistic model to calculate IC50 values.

The subject of a further assay is AGS. The assay can be described thus: Cell growth inhibition assay, AGS (CellTiter-Glo). Format: cell-based. The following applies: Homo sapiens, 144 h; AGS cell viability, 6 days incubation. Here is the method:
AGS cultured in F12K medium (Gibco) containing 10% fetal bovine serum (Gibco). Cells in culture medium were plated in 96-well plates at a concentration of 500 cells/well (100 μL/well) and allowed to attach overnight.
as §1
(In general: Cellular ATP, detected with luciferase, serves as a proxy for viable cell number.)

Assay [1] concerns the target T1, GppNp-loaded HIS-KRAS(G12D, aa 1-169) and cRAF RBD (Homo sapiens, UniProt P01116, G12D).
T1 construct: GppNp-loaded HIS-KRAS(G12D, aa 1-169)
In words: GTP-KRAS and cRAF interaction assay (HTRF). The following applies: 2 hours at 25° C. Format: biochemical. Here is the method:
GppNp-loaded HIS-KRAS(G12D, aa 1-169) was pre-incubated with a compound in the presence of 200 μM GTP in a 384-well plate (Greiner) for 15 min, then cRAF RBD(GST tag, aa 50-132, CreativeBioMart), MAb Anti GST-d2 (Cisbio) and MAb Anti 6HIS-Tb cryptate Gold (Cisbio) were added to the assay wells (Final concentration: 2.0 nM GppNp-loaded HIS-KRAS(G12D), 100 μM GTP, 35 nM cRAF RBD, 1 μg/mL MAb Anti GST-d2, 52.5 ng/mL MAb Anti 6HIS-Tb cryptate Gold) and incubated for 2 hours at 25° C. Wells containing same percent of DMSO served as vehicle control, and wells without KRAS served as low control. HTRF signals were read on Tecan Spark multimode microplate reader and HTRF ratios were calculated under manufacturer's instructions. The percent of activation of compounds treated wells were normalized between vehicle control and low control (% Activation=(HTRF ratioCompound treated−HTRF ratioLow control)/(HTRF ratioVehicle control−HTRF ratioLow control)*100%). Then the data were analyzed by fitting a 4-parameter logistic model or calculating in Excel to calculate IC50 values.

Assay [2] addresses T2, GDP-loaded HIS-KRAS(G12D, aa 1-169) (Homo sapiens, UniProt P01116, G12D).
T2 construct: GDP-loaded HIS-KRAS(G12D, aa 1-169)
In words: SOS1 catalyzed nucleotide exchange assay (TR-FRET). Format: biochemical. The following applies: 4 hours at 25° C. As to the method:
GDP-loaded HIS-KRAS(G12D, aa 1-169) was pre-incubated with a compound in the presence of 10 nM GDPin a 384-well plate (Greiner) for 15 min, then purified SOS1 ExD(Flag tag, aa 564-1049), BODIPY™ FL GTP (Invitrogen) and MAb (monoclonal antibody) Anti 6HIS-Tb cryptate Gold (Cisbio) were added to the assay wells (Final concentration: 1.5 nM GDP-loaded HIS-KRAS(G12D), 5 nM GDP, 0.5 μM SOS1 ExD, 80 nM BODIPY™ FL GTP, 52.5 ng/mL MAb Anti 6HIS-Tb cryptate Gold) and incubated for 4 hours at 25° C. Wells containing same percent of DMSO served as vehicle control, and wells without KRAS served as low control. TR-FRET signals were read on Tecan Spark multimode microplate reader. The parameters were F486: Excitation 340 nm, Emission 486 nm, Lag time 100 μs, Integration time 200 μs; F515: Excitation 340 nm, Emission 515 nm, Lag time 100 μs, Integration time 200 μs. TR-FRET ratios for each individual wells were calculated by equation: TR-FRET ratio=(Signal F515/Signal F486)*10000. The percent of activation of compounds treated wells were normalized between vehicle control and low control (% Activation=(TR-FRET ratioCompound treated−TR-FRET ratioLow control)/(TR-FRET ratioVehicle control−TR-FRET ratioLow control)*100%). Then the data were analyzed by fitting a 4-parameter logistic model or calculating in Excel to calculate IC50 values.
In general terms: Time-resolved FRET reads energy transfer from a long-lived donor to a nearby acceptor.

Assay [3] has as its system AGS cells expressing KRAS G12D. The assay can be described thus: Phospho-ERK1/2(THR202/TYR204) HTRF assay. It counts as cell-based. The following applies: Homo sapiens; Phospho-ERK1/2 in AGS cells, 2 hours incubation. Here is the method:
AGS cells expressing KRAS G12D were cultured in F12K medium (Gibco) containing 10% fetal bovine serum (Gibco). The AGS cells in culture medium were seeded in 96-well plates at a concentration of 40,000 cells/well and then put in a 37° C./5% CO2 cell incubator to incubate overnight. The next day, culture medium was removed and the compound diluted in assay medium (F12K, 0.1% FBS) was added in each well. After 2 hours incubation in a 37° C./5% CO2 cell incubator, the assay medium in 96-well plates was removed, then 50 μL of 1× blocking reagent-supplemented lysis buffer (Cisbio) was added and the plates were incubated at 25° C. for 45 min with shaking. 10 μL of cell lysates from the 96-well plates were transferred to a 384-well plate (Greiner) containing 2.5 μL/well HTRF® pre-mixed antibodies (Cisbio 64AERPEH). Incubate 4 hours at 25° C. and then read HTRF signals on Tecan Spark multimode microplate reader. The data were analyzed using a 4-parameter logistic model to calculate IC50 values.

T2 sequence (P01116 1-169 isoform P01116-2 G12D): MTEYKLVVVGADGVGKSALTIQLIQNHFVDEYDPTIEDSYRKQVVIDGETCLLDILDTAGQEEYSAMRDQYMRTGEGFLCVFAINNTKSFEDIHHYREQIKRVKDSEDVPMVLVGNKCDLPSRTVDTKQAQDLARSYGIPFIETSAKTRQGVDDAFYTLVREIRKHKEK
T1 sequence (P01116 1-169 isoform P01116-2 G12D): as above

Usually IC50 stands for the midpoint of a concentration-inhibition curve. Low values mean inhibition by little substance, high ones a need for much substance. In the case of `C#Cc1cccc2cc(O)cc(-c3c(F)cc4c(N5CC6CCC(C5)N6)nc(OCC5(CN6CCC7(CC6)CC7)CC5)nc4c3F)c12` [Compound 28], the IC50 was 0.0986 µM in the assay with AsPC-1; 0.00837 µM with AGS; 0.0525 µM in assay [1]; 0.00176 µM in assay [2]; 0.0262 µM in assay [3].
In the case of `C#Cc1cccc2cc(O)cc(-c3ccc4c(N5CC6CCC(C5)N6)nc(OCC5(CN6CCC7(CC6)CC7)CC5)nc4c3F)c12` [Compound 30], the half-maximal inhibitory concentration (IC50) in the assay with AsPC-1 amounted to 0.0817 µM; in the assay on AGS it was 0.00977 µM; in assay [1] it was 0.133 µM; in assay [2], 0.0286 µM; in assay [3], 0.0315 µM.
The like results for `C#Cc1cccc2cc(O)cc(-c3ccc4c(N5CC6CCC(C5)N6)nc(OCC5(CN6CC(OC)C6)CC5)nc4c3F)c12` [Compound 31] were, in that order, 0.215 µM, 0.0262 µM, 0.108 µM, 0.0232 µM and 0.0134 µM.
For the compound `C#Cc1cccc2cc(O)cc(-c3ccc4c(N5CC6CCC(C5)N6)nc(OCC5(CN6CC7CCCC7C6)CC5)nc4c3F)c12` (stereo not drawn) [Compound 32], the IC50 is 0.0671 µM in the assay on AsPC-1; 0.00882 µM with AGS; 0.0931 µM in assay [1]; 0.0355 µM in assay [2]; 0.0348 µM in assay [3].
As for `C#Cc1cccc2cc(O)cc(-c3ccc4c(N5CC6CCC(C5)N6)nc(OCC5(CN6CC(C)(OC)C6)CC5)nc4c3F)c12` [Compound 33], the half-inhibitory concentration (IC50) in the assay with AsPC-1 is 0.151 µM; in the assay with AGS it was 0.0153 µM; in assay [1], 0.126 µM; in assay [2], 0.0316 µM; in assay [3], 0.0128 µM.
The corresponding values for `C#Cc1cccc2cc(O)cc(-c3c(F)cc4c(N5CC6CCC(C5)N6)nc(OCC5(CN6CCC7(CCCCO7)C6)CC5)nc4c3F)c12` (stereo not drawn) [Compound 34] are 0.208 µM, 0.0169 µM, 0.0826 µM, 0.00307 µM and 0.0389 µM.
On to `C#Cc1cccc2cc(O)cc(-c3c(F)cc4c(N5CC6CCC(C5)N6)nc(OCC5(CN6CCOCC67CCC7)CC5)nc4c3F)c12` [Compound 35], for which the IC50 was 0.0596 µM in the assay on AsPC-1; 0.00843 µM with AGS; 0.157 µM in assay [1]; 0.00217 µM in assay [2]; 0.0202 µM in assay [3].
Consider `C#Cc1cccc2cc(O)cc(-c3c(F)cc4c(N5CC6CCC(C5)N6)nc(OCC5(CN6C[C@H]7C[C@@H]6CO7)CC5)nc4c3F)c12` [Compound 36], for which the IC50 in the assay with AsPC-1 amounted to 0.0774 µM; with AGS, 0.00871 µM; in assay [1] it was 0.0351 µM; in assay [2], 0.0021 µM; in assay [3], 0.00307 µM.
The corresponding values for `C#Cc1cccc2cc(O)cc(-c3c(F)cc4c(N5CC6CCC(C5)N6)nc(OCC5(CN6CCCOCC6)CC5)nc4c3F)c12` [Compound 37] are 0.0899 µM, 0.00648 µM, 0.0501 µM, 0.00436 µM and 0.0109 µM.
The corresponding values for `C#Cc1cccc2cc(O)cc(-c3c(F)cc4c(N5CC6CCC(C5)N6)nc(OCC5(CN6CCC7(CCOC7)C6)CC5)nc4c3F)c12` (stereo not drawn) [Compound 45] are 0.653 µM, 0.0742 µM, 0.408 µM, 0.0264 µM and 0.125 µM.
The like results for `C#Cc1cccc2cc(O)cc(-c3c(F)cc4c(N5CC6CCC(C5)N6)nc(OCC5(CN6CC7(CCOC7)C6)CC5)nc4c3F)c12` [Compound 46] were, in that order, 0.488 µM, 0.0554 µM, 0.242 µM, 0.00592 µM and 0.0231 µM.
Consider `C#Cc1cccc2cc(O)cc(-c3c(F)cc4c(N5CC6CCC(C5)N6)nc(OCC5(CN6CCC7(CCCO7)C6)CC5)nc4c3F)c12` (stereo not drawn) [Compound 47], for which the IC50 is 0.227 µM with AsPC-1; 0.029 µM in the assay on AGS; 0.0921 µM in assay [1]; 0.00258 µM in assay [2]; 0.0314 µM in assay [3].
